Data reported in patent US11897880B2, “7,8-dihydrobenzo[e]pyrido[3,4-c]azocine-2,5(3H,6H)-dione derivatives useful as a factor XIa inhibitors” (Janssen Pharmaceutica NV, priority 2021, dated 2024).
Where two headings read alike, the source gives them in different places.

Columns and labels:
human plasma kallikrein = human plasma kallikrein (Homo sapiens, UniProt P03952); test: Kallikrein inhibition assay utilizing a quenched AMC peptide substrate (FLINT); type: biochemical; details: 30 min preincubation, 50 μM Z-Gly-Pro-Arg-AMC, 2 nM kallikrein
From the text: Biological Example 2: Kallikrein Inhibition Assay Utilizing a Quenched AMC Peptide Substrate
A fluorescence intensity (FLINT) based assay was used to monitor inhibition of human plasma kallikrein. The peptide substrate, Z-Gly-Pro-Arg-AMC (Purchased from Bachem; Catalog #1-1150) was chosen based on its relatively low KM for kallikrein which enables running the assay at lower substrate concentrations to control background fluorescence.
The Kallikrein FLINT assay was used with the following Z-Gly-Pro-Arg-AMC assay buffer: 50 mM Tris, pH 7.5, 100 mM NaCl, 5 mM CaCl2), 0.1 mg/mL BSA, 0.03% CHAPS. Assay buffer was prepared by mixing all ingredients fresh. 2× Z-Gly-Pro-Arg-AMC peptide substrate was prepared by diluting 10 mM stock into 1× assay buffer for a 100 μM working concentration (50 μM final concentration). The 2× kallikrein stock solution was prepared by diluting 14.76 μM stock in 1× assay buffer for a 4 nM working stock solution (2 nM final concentration).
Test compound(s) were run in an 11-point, 3-fold serial dilution with a final top compound concentration of 1 μM. Final DMSO in assay was 2%. Plasma kallikrein was pre-incubated for 30-minute with compound and then 50 μM substrate was added to initiate the reaction. The assay was run with kinetic (KIN) reads at 5 min intervals over 30 minutes. The time course was linear using 2 nM kallikrein greater than 30 minutes. More specifically, the assay was run as follows: • 100 nL of 0.1 mM test compound was dispensed into black 384-well non-binding Greiner BioOne 784900 plate for 1 μM final concentration; • 5 μL of 1× assay buffer was dispensed to columns 24 (low control) and 5 μL 2× human kallikrein enzyme solution was dispensed to columns 1-23 (column 23 high control); • the plate was centrifuged with a “cover” plate at 500 rpm for 1 min • the plate was pre-incubated for 30 minutes at room temperature with plate covered; • 5 μL of 2× Z-Gly-Pro-Arg-AMC peptide substrate was dispensed into the entire plate, columns 1-24; • the plate was centrifuged with a “cover” plate at 500 rpm for 1 min; the plate was read monitoring fluorescence intensity on the BMG PHERAStar at room temperature, using fluorescence module 340 nm/440 nm.
Percent inhibition (IC50) curves were generated per compound tested, and data was analyzed using a 4-parameter logistic fit using GeneData Screener. The relative fluorescence unit (RFU) values were normalized to percent inhibition using the following equation: % inhibition=((HC−LC)−(compound−LC)/(HC−LC))*100 where LC—low control=mean signal of human kallikrein enzyme or 100% inhibition of human kallikrein enzyme; HC—high control=mean signal of […]+Z-Gly-Pro-Arg-AMC peptide substrate with DMSO only.
An 11-point dose response curve for the test compound(s) was generated using GENDATA to determine IC50 value based on the following equation: Y=Bottom+(Top−Bottom)/(1+10^((log IC50−X)*HillSlope)) • where Y is the % inhibition in the presence of X inhibitor concentration, Top=high control=mean signal of human kallikrein enzyme+Z-Gly-Pro-Arg-AMC peptide substrate with DMSO only; Bottom=low control−mean signal of no human kallikrein enzyme or 100% inhibition of human kallikrein enzyme; HillSlope—Hill coefficient; and IC50=concentration of compound with 50% inhibition in relation to top/high control.
(§1) Representative compounds of formula (I) of the present invention were tested according to the procedure described in Biological Example 1 and Biological Example 2 above, with results as listed in Table 3, below.

Factor XIa = Factor XIa (Homo sapiens, UniProt P03951); test: Factor XIa inhibition assay utilizing a fluorophore-quencher pair peptide substrate (FLINT); type: biochemical; details: for Ki: read-out: FXIa Ki; for IC50: read-out: FXIa IC50
From the text: Biological Example 1: Factor XIa Inhibition Assay Utilizing a Fluorophore-Quencher Pair Peptide Substrate
A fluorescence intensity (FLINT) based assay was used to monitor inhibition of Factor XIa. The peptide substrate, 5Fam-KLTRAETV-K5Tamra (purchased from New England Peptide) was chosen based on the FXI sequence. Conversion of zymogen FXI to its activated form, FXIa, occurs by proteolytic cleavage by […] at two sites, Arg146 and Arg180. The custom peptide used in this assay was based on the Arg146 cleavage site of FXI. The peptide substrate was designed with a fluorophore-quencher pair, where the fluorescence is quenched until FXIa cleaves the 8-mer peptide after the Arg residue.
The Factor XIa FLINT assay was used with the following 5Fam-KLTRAETV-K5Tamra assay buffer: 50 mM Tris, pH 7.5, 100 mM NaCl, 5 mM CaCl2), 0.1 mg/mL BSA, 0.03% CHAPS. Assay buffer was prepared by mixing all ingredients fresh. 5Fam-KLTRAETV-K5Tamra peptide substrate was first prepared at 10 mM in 100% DMSO, then diluted to 3 mM in 100% DMSO. Assay buffer was then added directly to the 3 mM stock of substrate to prepare the 30 μM 2× working concentration (15 μM final concentration). The 2× Factor XIa stock solution was prepared by diluting 6.562 μM stock in 1× assay buffer for a […].
Test compound(s) were run in an 11-point, 3-fold serial dilution with a final top compound concentration of 100 nM. Final DMSO in assay was 2%. FXIa was preincubated with compound for 30-minutes and then substrate was added to initiate the reaction. The assay was run with kinetic (KIN) reads at 5 min intervals over 30 minutes. The time course was linear using […] FXIa greater than 30 minutes. More specifically, the assay was run as follows: • 100 nL of 0.01 mM test compound was dispensed into black 384-well non-binding Greiner BioOne 784900 plate for 0.1 μM final concentration; • 5 μL of 1× assay buffer was dispensed to column 24 (low control) and 5 μL 2× Factor XIa solution was dispensed to columns 1-23 (column 23 high control); • the plate was centrifuged with a “cover” plate at 500 rpm for 1 min • the plate was pre-incubated for 30 minutes at room temperature with plate covered; • 5 μL of 2×5Fam-KLTRAETV-K5Tamra peptide substrate was dispensed into the entire plate, columns 1-24; • the plate was centrifuged with a “cover” plate at 500 rpm for 1 min; • the plate was read monitoring fluorescence intensity on the BMG PHERAStar at room temperature, using fluorescence module 485 nm/520 nm.
Percent inhibition (IC50) curves were generated per compound tested, and data was analyzed using a 4-parameter logistic fit using GeneData Screener. The relative fluorescence unit (RFU) values were normalized to percent inhibition using the following equation: % inhibition=((HC−LC)−(compound−LC)/(HC−LC))*100
where LC−low control=mean signal of no Factor XIa or 100% inhibition of Factor XIa; HC−high control=mean signal of Factor XIa+5Fam-KLTRAETV-K5Tamra peptide substrate with DMSO only.
An 11-point dose response curve for the test compound(s) was generated using GENDATA to determine IC50 value based on the following equation: Y=Bottom+(Top−Bottom)/(1+10^((log IC50−X)*HillSlope))
where Y is the % inhibition in the presence of X inhibitor concentration, Top=high control=mean signal of Factor XIa+5Fam-KLTRAETV-K5Tamra peptide substrate with DMSO only; Bottom=low control−mean signal of no Factor XIa or 100% inhibition of Factor XIa; HillSlope−Hill coefficient; and IC50=concentration of compound with 50% inhibition in relation to top/high control.
as §1

[1] = cells that print μM themselves in the nM column
[2] = cells that print μM themselves in the nM column, same assay conditions
[3] = 30 min preincubation, 5Fam-KLTRAETV-K5Tamra substrate 15 μM final, kinetic reads

Chain of human plasma kallikrein (P03952 391-638 limits assumed): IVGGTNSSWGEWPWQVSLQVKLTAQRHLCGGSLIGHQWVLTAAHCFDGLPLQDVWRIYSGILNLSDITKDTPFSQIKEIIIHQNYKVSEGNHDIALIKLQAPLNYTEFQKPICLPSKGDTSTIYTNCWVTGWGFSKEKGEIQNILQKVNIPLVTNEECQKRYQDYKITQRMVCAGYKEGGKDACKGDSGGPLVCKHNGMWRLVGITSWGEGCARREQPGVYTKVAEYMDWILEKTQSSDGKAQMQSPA
Chain of human plasma kallikrein (P03952 20-390 partner limits assumed): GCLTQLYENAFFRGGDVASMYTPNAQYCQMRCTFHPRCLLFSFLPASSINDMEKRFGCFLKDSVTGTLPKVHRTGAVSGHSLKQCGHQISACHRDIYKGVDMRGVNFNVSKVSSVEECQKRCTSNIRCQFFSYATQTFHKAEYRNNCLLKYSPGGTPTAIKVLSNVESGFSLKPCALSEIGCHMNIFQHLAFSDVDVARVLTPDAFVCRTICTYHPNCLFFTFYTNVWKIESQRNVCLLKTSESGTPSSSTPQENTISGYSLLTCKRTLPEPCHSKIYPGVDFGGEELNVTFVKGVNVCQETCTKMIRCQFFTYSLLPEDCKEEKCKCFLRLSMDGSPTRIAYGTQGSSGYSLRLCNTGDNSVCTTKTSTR
Chain of Factor XIa (P03951 388-625 limits assumed): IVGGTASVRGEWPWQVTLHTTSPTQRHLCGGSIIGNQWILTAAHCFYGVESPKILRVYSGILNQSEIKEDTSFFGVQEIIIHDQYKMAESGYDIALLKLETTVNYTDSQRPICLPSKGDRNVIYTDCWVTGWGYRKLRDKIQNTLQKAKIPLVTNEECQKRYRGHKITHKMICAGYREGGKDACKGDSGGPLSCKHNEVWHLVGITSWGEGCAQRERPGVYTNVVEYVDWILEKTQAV
Chain of Factor XIa (P03951 19-387 partner limits assumed): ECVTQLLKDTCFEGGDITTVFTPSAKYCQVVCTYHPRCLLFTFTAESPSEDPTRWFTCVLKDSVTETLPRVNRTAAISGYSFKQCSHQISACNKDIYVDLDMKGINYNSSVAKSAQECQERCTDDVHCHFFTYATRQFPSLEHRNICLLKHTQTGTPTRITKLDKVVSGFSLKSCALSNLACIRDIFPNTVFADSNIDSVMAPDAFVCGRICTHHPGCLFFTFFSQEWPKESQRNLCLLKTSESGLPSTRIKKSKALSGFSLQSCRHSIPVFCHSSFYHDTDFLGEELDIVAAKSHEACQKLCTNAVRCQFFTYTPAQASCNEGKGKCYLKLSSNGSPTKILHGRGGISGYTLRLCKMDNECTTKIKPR

| Compound | IC50 (human plasma kallikrein) [nM] | Ki (Factor XIa; [1]) [µM] | IC50 (Factor XIa; [2]) [µM] | IC50 (Factor XIa; [3]) [µM] | Ki (Factor XIa) [µM] |
| --- | --- | --- | --- | --- | --- |
| O=C1NC2(CC2)Cc2ccc(Cl)c(F)c2-c2cc(=O)n(C(CC3CC3)c3ncc(-c4cc[n+]([O-])cc4)[nH]3)cc21 (single isomer, unassigned) [Compound 57, (R*)-4-(2-(1-(11-chloro-12-fluoro-2,5-dioxo-2,5,6,8-tetrahydro-3H-spiro[benzo[e]pyrido[3,4-c]azocine-7,1′-cyclopropan]-3-yl)-2-cyclopropylethyl)-1H-imidazol-5-yl)pyridine 1-oxide] | > 10000 | 4.84 | 9.69 | – | – |
| Nc1ccc(-c2cnc(C3CCc4c5c(cc(=O)n43)-c3c(ccc(Cl)c3F)-c3ccncc3NC5=O)[nH]2)c(F)n1 (single isomer, unassigned) [Compound 36, (S*)-3-(5-(6-amino-2-fluoropyridin-3-yl)-1H-imidazol-2-yl)-8-chloro-7-fluoro-2,3-dihydrobenzo[5,6]pyrido[4′,3′:7,8]azocino[4,3-g]indolizine-5,16(1H,15H)-dione] | > 10000 | ~2.87 | ~5.75 | – | – |
| O=C1NC2(CC2)Cc2ccc(Cl)c(F)c2-c2cc(=O)n3c(c21)CC[C@@H]3c1ncc(-c2ccc3[nH]cnc3c2)[nH]1 (stereo in doubt) [Compound 6, (R*)-12-(5-(1H-benzo[d]imidazol-5-yl)-1H-imidazol-2-yl)-7-chloro-8-fluoro-13,14-dihydro-2H-spiro[benzo[5,6]azocino[4,3-g]indolizine-3,1′-cyclopropane]-1,10(4H,12H)-dione] | 60 | – | – | 0.0006 | 0.0003 |
| Nc1ccc(-c2cnc([C@@H]3CCc4c5c(cc(=O)n43)-c3c(ccc(Cl)c3F)CCNC5=O)[nH]2)c(F)n1 (stereo in doubt) [Compound 46, (S*)-12-(5-(6-amino-2-fluoropyridin-3-yl)-1H-imidazol-2-yl)-7-chloro-8-fluoro-3,4,13,14-tetrahydrobenzo[5,6]azocino[4,3-g]indolizine-1,10(2H,12H)-dione] | > 10000 | 4.57 | 9.15 | – | – |
| CC1(C)Cc2ccc(Cl)c(F)c2-c2cc(=O)n3c(c2C(=O)N1)CC[C@@H]3c1ncc(-c2ccc(N)nc2F)[nH]1 (single isomer, unassigned) [Compound 28, (R*)-12-(5-(6-amino-2-fluoropyridin-3-yl)-1H-imidazol-2-yl)-7-chloro-8-fluoro-3,3-dimethyl-3,4,13,14-tetrahydrobenzo[5,6]azocino[4,3-g]indolizine-1,10(2H,12H)-dione] | > 10000 | – | – | ~0.783 | ~0.392 |
| Nc1ccc(-c2cnc([C@@H]3CCc4c5c(cc(=O)n43)-c3c(ccc(Cl)c3F)CC3(CC3)NC5=O)[nH]2)c(Cl)n1 [Compound 52, (S)-12-(5-(6-amino-2-chloropyridin-3-yl)-1H-imidazol-2-yl)-7-chloro-8-fluoro-13,14-dihydro-2H-spiro[benzo[5,6]azocino[4,3-g]indolizine-3,1′-cyclopropane]-1,10(4H,12H)-dione] | 70 | – | – | 0.0002 | 0.0001 |
| Nc1ccc(-c2cnc([C@@H]3CCc4c5c(cc(=O)n43)-c3c(ccc(Cl)c3F)CC3(CC3)N(CCO)C5=O)[nH]2)c(F)n1 (single isomer, unassigned) [Compound 11, (S*)-12-(5-(6-amino-2-fluoropyridin-3-yl)-1H-imidazol-2-yl)-7-chloro-8-fluoro-2-(2-hydroxyethyl)-13,14-dihydro-2H-spiro[benzo[5,6]azocino[4,3-g]indolizine-3,1′-cyclopropane]-1,10(4H,12H)-dione] | > 10000 | – | 1.17 | – | 0.588 |
| Nc1ccc(-c2cnc([C@H]3CCc4c5c(cc(=O)n43)-c3c(ccc(Cl)c3F)CC3(CCC3)NC5=O)[nH]2)c(F)n1 (stereo in doubt) [Compound 33, (R*)-12-(5-(6-amino-2-fluoropyridin-3-yl)-1H-imidazol-2-yl)-7-chloro-8-fluoro-13,14-dihydro-2H-spiro[benzo[5,6]azocino[4,3-g]indolizine-3,1′-cyclobutane]-1,10(4H,12H)-dione] | > 10000 | – | – | 0.237 | 0.118 |
| Cn1nncc1-c1cnc([C@@H]2CCc3c4c(cc(=O)n32)-c2c(ccc(Cl)c2F)CCNC4=O)[nH]1 (stereo in doubt) [Compound 44, (S*)-7-chloro-8-fluoro-12-(5-(1-methyl-1H-1,2,3-triazol-5-yl)-1H-imidazol-2-yl)-3,4,13,14-tetrahydrobenzo[5,6]azocino[4,3-g]indolizine-1,10(2H,12H)-dione] | > 10000 | > 5 | > 10 | – | – |
| Cn1cc(-c2cnc(C(CC3CC3)n3cc4c(cc3=O)-c3c(ccc(Cl)c3F)CC3(CC3)NC4=O)[nH]2)ccc1=O (single isomer, unassigned) [Compound 63, (S*)-11-chloro-3-(2-cyclopropyl-1-(5-(1-methyl-6-oxo-1,6-dihydropyridin-3-yl)-1H-imidazol-2-yl)ethyl)-12-fluoro-3H-spiro[benzo[e]pyrido[3,4-c]azocine-7,1′-cyclopropan]-2,5(6H,8H)-dione] | > 10000 | – | 1.16 | – | 0.578 |
